According to patent publication US20240217946A1, “ANTIDEPRESSANT AND ANXIOLYTIC SUBSTITUTED CINNAMAMIDE COMPOUND” (TASLY PHARMACEUTICAL GROUP CO., LTD., priority 2021, published 2024):

Tests used:
[1] = test system: DA reuptake in rat brain synaptosomes; experiment: 3H-DA reuptake by rat brain synaptosomes; type: biochemical; conditions: 3H-DA 10 nM, rat brain synaptosomes; read-out: DA inhibition rate % IC50
From the text: At present, it is believed that absolute or relative deficiencies of the central monoamine neurotransmitters 5-hydroxytryptamine (5-HT), norepinephrine (NA) and dopamine (DA) are closely related to depression and anxiety. This experiment was designed to evaluate, by the method of in vitro monoamine reuptake, the inhibitory effect of two samples of tested compound I-5 and compound M2 on reuptake of 5-HT, NA and DA in rat brain synaptosomes. The preparation of in vitro SD rat brain synaptosomes and isotopic tracer method were employed to investigate IC50 of inhibition of monoamine reuptake of DA, 5-HT and NA in two tested samples, in order to explore the possible mechanism of antidepressant and anxiolytic effects of compound I-5 and compound M2.
Synaptosomes were separated using methods in literature to prepare brain synaptosomes. SD rats were rapidly decapitated with a small animal decapitator. After decapitation, brains were taken out quickly and precooled in an ice-water mixture, and the pia mater and vascular tissue were removed. Brain tissue was taken out. 10 times volume (ml/g) of 10 mM Tris HCl buffer (containing 0.32 M sucrose, pH 7.4) was added, an ultrasonic cell pulverizer was used for homogenization (maintaining at a low temperature), and the brain tissue was homogenized and centrifuged for 10 min (4° C., 1,000 g). After balanced centrifugation (1500 g, 10 min) at 4° C., precipitate was discarded, then supernatant was taken, and centrifugation (20000 g) was performed again for 30 min. The supernatant was discarded and the precipitate, i.e. crude extract of synaptic corpuscles, was retained. […] The precipitate was suspended in a small amount of Kreb's buffer (NaCl 118 mM, KCl 4.7 mM, CaCl2) 2.5 mM, MgSO4 1.2 mM, KH2PO4 1.2 mM, NaHCO325 mM and Glucose 11.1 mM, pH 7.2-7.4), BCA method was used for protein quantification, and the operation steps were as described in the description. […]
The percentage inhibition of isotope ligand binding by each compound was calculated according to the following equation: […]

SD rats = experiment: Vogel drinking conflict experiment in rats, single administration; type: in vivo; conditions: for Number of times of drinking water: 10 mg/kg i.g., 30 min after single dose, punishment stage 3 min, n = 8; for anxiolytic activity in drinking conflict experiment vs solvent control group: single intragastric administration of 20 mg/kg
Description: 75 male SD rats, with the body weight of 180-220 g, were fed adaptively for 1 week, water deprived for 24 h for training period test. The animals screened to be qualified were randomly divided into 7 groups (a solvent control group, estazolam group, compound M2 group, compound II-3 group, compound II-4 group, compound II-5 group and compound II-10 group) according to their body weight, with 8 rats in each group. […] results of 3.1: the positive drug estazolam was administered intragastrically at 1.24 mg/kg; and the solvent control group was gavaged with an equal volume of solvent. The grouped animals were continued to be water deprived for 24 h and were given a single dose, and tested in a punishment experiment 30 min after the single dose.
The experiment was carried out in two stages. The first stage is a training stage, in which 24 h after water deprivation, animals were placed in an operation box separately, and were allowed to fully explore until they found the bottle mouth and started to lick water (with an intensity of electric shock being 0 mA), a counter automatically recorded the number of licks within 3 min, and the animals that licked water less than 300 times were eliminated.
Observation index: the number of water licks of rats in the punishment stage.
Data was expressed as mean±standard (mean±SD) difference, and statistics of data differences were made by one-way analysis of variance (ANOVA) or nonparametric test, and differences between groups were determined by P<0.05.

IC50 [1] [nM]	SMILES	Number of times of drinking water (SD rats)	anxiolytic activity in drinking conflict experiment vs solvent control group (SD rats)
26 ± 1.33	CC(C)CNC(=O)/C=C/c1cc2c(c(C(F)(F)F)c1)OCO2 [Compound I-5]	478.02 ± 106.32	significant anxiolytic activity
37.3 ± 1.97	NC(=O)/C=C/c1cc2c(c(C(F)(F)F)c1)OCO2 [Compound M2]	527.26 ± 143.66	significant anxiolytic activity
